The source of these data is US7897601B2, “Cannabinoid receptor modulators” (Intervet, Inc., priority 2006, dated 2011).

For this assay, the target named is T1, cannabinoid CB1 (Homo sapiens, UniProt P21554).
T1 construct: purchased
The assay is described as follows: Competition binding assay for cannabinoid CB1 affinity (3H-CP55,940 displacement). The protocol:
Competition binding assays for cannabinoid CB1 and CB2 affinity were performed by incubating commercially purchased membranes prepared from cells expressing each receptor subtype (8 μg pro) with 0.5 nM ^3H-CP55,940, a non-selective cannabinoid agonist, along with concentrations of drug ranging from 0.0001-3 μM in Buffer A (5 mM MgCl2, 2.5 mM EDTA and […] BSA). Non-specific binding was defined in the presence of 10 μM CP55,940. For saturation studies, concentrations of ^3H-CP55,940 ranging from 0.1-5 nM were incubated with membranes in the presence and absence of 10 μM CP55,940. Assays were terminated after incubation for 1½ hours by rapid filtration onto 0.3% polyethylenamine treated GF/C filterplates using a BRANDEL cell harvester. […]
The dissociation constant (Kd) of ^3H-CP55,940 at the CB1 and CB2 receptor were determined by plotting specific binding at each concentration of radioligand, and analysis by non-linear regression. For competition studies, the concentration of each drug that inhibited 50 percent of ^3H-CP55,940 binding (IC50) was determined by non-linear regression analysis of the radioligand displacement curves. Affinity constants (Ki) were calculated using the equation derived by Cheng and Prusoff (1973), defined as: IC50/1+[conc. ligand/Kd].

T1 sequence (P21554 whole entry): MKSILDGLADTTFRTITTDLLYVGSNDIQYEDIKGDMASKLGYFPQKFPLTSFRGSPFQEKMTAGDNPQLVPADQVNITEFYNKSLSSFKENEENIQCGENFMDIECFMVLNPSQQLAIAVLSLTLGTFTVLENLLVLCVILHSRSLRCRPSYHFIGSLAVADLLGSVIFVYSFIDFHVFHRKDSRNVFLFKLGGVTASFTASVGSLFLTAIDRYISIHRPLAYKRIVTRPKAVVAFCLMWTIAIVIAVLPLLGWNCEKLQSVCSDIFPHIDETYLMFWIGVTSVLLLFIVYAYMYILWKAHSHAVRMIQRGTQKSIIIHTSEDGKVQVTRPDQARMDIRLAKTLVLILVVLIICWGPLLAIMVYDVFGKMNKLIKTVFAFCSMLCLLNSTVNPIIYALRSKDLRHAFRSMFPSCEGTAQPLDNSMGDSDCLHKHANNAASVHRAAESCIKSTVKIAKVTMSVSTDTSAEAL

Broadly, the Ki is the dissociation constant of the complex between target and ligand, obtained from inhibition or displacement. As to `O=C(NC1CCCC1)C1CCC(c2ccc(Cl)cc2)=C(c2ccc(Cl)cc2)C1` (stereo not shown) [Compound 180], the Ki was 1 to 10 nM.
